Assay results reported in ChEMBL document CHEMBL1129635, “Evaluation of selected chemotypes in coupled cellular and molecular target-based screens identifies novel HIV-1 zinc finger inhibitors” (J Med Chem, 1996).
pEC50, pIC50: −log10 of the molar value. Calls of active or inactive are those of the source. The calls are words filed in the database; no cut-off is given here.

Columns and labels:
[1] = test system: Human immunodeficiency virus 1; assay: Inhibition of HIV-1 replication in human T-cell by using XTT assay.; type: functional
[2] = test system: Human immunodeficiency virus 1; assay: Compound was tested for effective concentration required for 50% production of p24 production; NA = Not active; type: functional, organism-based
[3] = test system: Human immunodeficiency virus 1; assay: Compound was tested for inhibition of HIV-1 replication in human T-cell by using XTT assay; Moderately active; type: functional, organism-based
[4] = test system: Human immunodeficiency virus 1; assay: Effective concentration required for 50% production of p24 production.; type: functional, organism-based
[5] = test system: Human immunodeficiency virus 1; assay: Tested against zinc finger of the recombinant HIV-1 p7NC toluenesulfonamide) residue for fluorometric measurements; type: functional
[6] = test system: Human immunodeficiency virus 1; assay: Tested against zinc finger of the recombinant HIV-1 p7NC protein by using Trp residue for fluorometric measurements; type: functional
[7] = test system: Human immunodeficiency virus 1; assay: Tested for cytoprotection against production of HIV-1 p24.; type: functional, organism-based
T-cell line = assay: Compound was tested for inhibition of HIV-1 replication in human T-cell by using XTT assay; Active; type: functional, cell-based

Structure (SMILES) | TI50 [1] | EC50 [2] | Activity [3] | pEC50 [4] | increase in RFU [5] | Decrease in RFU [6] | pIC50 [7] | Activity (T-cell line)
Cc1cc(C)c(C(=O)O)c(SSc2cc(C)cc(C)c2C(=O)O)c1 | 2.7 | Not Active | Weak activity | – | – | – | – | –
COC(=S)SSC(=S)N(CC/N=C(/S)SSC(=S)OC)CC/N=C(\S)SSC(=S)OC | 2.6 | – | Weak activity | < 4.00 | 10.6% | 37.7% | < 4.00 | –
COS(=O)CCOC(=O)c1ccccc1SSc1ccccc1C(=O)OCCS(=O)OC (stereo not given) | >2.1 | Not Active | Weak activity | – | – | – | – | –
O=C(N/N=C\c1ccc(Cl)cc1Cl)c1ccccc1SSc1ccccc1C(=O)N/N=C\c1ccc(Cl)cc1Cl | >15.9 | – | – | 5.46 | 1.6% | 31.3% | < 4.00 | Active
N=C(N)Nc1ccccc1SSc1ccccc1N=C(N)N | 32 | – | – | 5.00 | 1.6% | 31.3% | < 4.00 | Active
Nc1cc(S(N)(=O)=O)ccc1SSc1ccc(S(N)(=O)=O)cc1N | 14.9 | – | Weak activity | < 4.00 | 24.4% | 81.8% | 4.00 | –
NNC(=O)c1ccccc1SSc1ccccc1C(=O)NN | 5 | – | Weak activity | 4.68 | 28.5% | 80.9% | 4.02 | –
COc1cc(SSc2cc(OC)cc([N+](=O)[O-])c2N)c(N)c([N+](=O)[O-])c1 | 8.5 | – | Weak activity | 5.12 | 0% | 80.5% | < 4.00 | –
O=C(O)c1ccc(SSc2ccc(C(=O)O)cc2)cc1 | >1.6 | – | Weak activity | < 4.00 | 22.3% | 62.5% | < 4.00 | –
O=S(=O)(SC1=NCCN1)c1ccccc1 | 4.3 | – | Weak activity | 4.43 | 15.7% | 76.1% | < 4.00 | –
Cc1cc(C(=O)O)c(C)cc1SSc1cc(C)c(C(=O)O)cc1C | 3.6 | – | Weak activity | 4.49 | 15.7% | 76.1% | < 4.00 | –
CC1(C)CC2=NC(SSC3=C(C#N)C(c4ccc(Br)cc4)C4=C(O)CC(C)(C)CC4=N3)=C(C#N)C(c3ccc(Br)cc3)C2=C(O)C1 (stereo not given) | 3.4 | – | Weak activity | < 4.00 | 0.3% | 24.8% | < 4.00 | –
CC1(C)CC2=NC(SSC3=C(C#N)C(c4ccc(F)cc4)C4=C(O)CC(C)(C)CC4=N3)=C(C#N)C(c3ccc(F)cc3)C2=C(O)C1 (stereo not given) | 3.2 | – | Weak activity | < 4.00 | 0.3% | 78.1% | < 4.00 | –
O=C(O)c1cccc(SS(=O)(=O)c2cccc(C(=O)O)c2)c1 | 13.7 | – | Weak activity | 4.15 | 21.1% | 91.2% | < 4.00 | –
O=C(O)c1ccccc1SSc1ccccc1C(=O)O | >1.7 | – | Weak activity | 4.24 | 9.8% | 6% | < 4.00 | –
Nc1cc(C(=O)O)ccc1SSc1ccc(C(=O)O)cc1N | >6.4 | – | Weak activity | < 4.00 | 10.9% | 79.3% | < 4.00 | –
NC(=O)CSSCC(N)=O | 6.5 | – | Weak activity | < 4.00 | 1.2% | 2.1% | < 4.00 | –
CC(=O)NCCSS(=O)(=O)CCCCS(=O)(=O)SCCNC(C)=O | >1.6 | – | Weak activity | < 4.00 | 32.8% | 82.5% | < 4.00 | –
Cc1cc(S(=O)(=O)C2=NC(Nc3ccccc3)NN2)c(SSc2cc(Cl)c(C)cc2S(=O)(=O)C2=NC(Nc3ccccc3)NN2)cc1Cl (stereo not given) | 15.7 | – | Weak activity | 4.10 | 1.5% | 92.1% | < 4.00 | –
CC(=O)NC1CN=C(SSC2=NCC(NC(C)=O)S2)S1 (stereo not given) | >5.3 | – | Weak activity | < 4.00 | 8% | 77.8% | < 4.00 | –
O=C(O)Cc1ccc(SSc2ccc(CC(=O)O)cc2)cc1 | >8.7 | – | Weak activity | < 4.00 | 10.6% | 51.5% | < 4.00 | –
CNCCSS(=O)(=O)CCNC | >1.8 | – | Weak activity | – | – | – | – | –
NS(=O)(=O)c1ccc(SSc2ccc(S(N)(=O)=O)cc2[N+](=O)[O-])c([N+](=O)[O-])c1 | >5.8 | – | Weak activity | – | – | – | – | –
Nc1ccc(S(N)(=O)=O)cc1SSc1cc(S(N)(=O)=O)ccc1N | >14.2 | – | Weak activity | < 4.00 | 26% | 52.1% | 4.01 | –
